Data taken from patent publication US11981669B2, “1,7-naphthyridine derivative and preparation method and use therefor” (CSPC ZHONGQI PHARMACEUTICAL TECHNOLOGY (SHIJIAZHUANG) CO., …, priority 2018, dated 2024).

Columns and labels:
[1] = test system: HIF-2α; assay: Expression of HIF-2α protein in Hep3B cells (western blot, grayscale analysis); type: cell-based, Human; conditions: for fold induction at 30 µM: Homo sapiens, 2 h, compound at 30 μM, 10 μM and 3 μM, read-out: HIF-2α level of the compound of the present disclosure/HIF-2α level of blank control
How it was run: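 Hep3B human hepatoma cells were treated for 2 h with compound at 30, 10 and 3 μM in DMEM containing 0.5% FBS after overnight culture. Protein levels were measured by western blot with grayscale densitometry.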

[2] = target: PHD2 (Homo sapiens (Human), UniProt Q9GZT9); assay: PHD enzyme assay (Eu-VBC TR-fluorescence); type: biochemical
PHD2, sequence (Q9GZT9 whole entry): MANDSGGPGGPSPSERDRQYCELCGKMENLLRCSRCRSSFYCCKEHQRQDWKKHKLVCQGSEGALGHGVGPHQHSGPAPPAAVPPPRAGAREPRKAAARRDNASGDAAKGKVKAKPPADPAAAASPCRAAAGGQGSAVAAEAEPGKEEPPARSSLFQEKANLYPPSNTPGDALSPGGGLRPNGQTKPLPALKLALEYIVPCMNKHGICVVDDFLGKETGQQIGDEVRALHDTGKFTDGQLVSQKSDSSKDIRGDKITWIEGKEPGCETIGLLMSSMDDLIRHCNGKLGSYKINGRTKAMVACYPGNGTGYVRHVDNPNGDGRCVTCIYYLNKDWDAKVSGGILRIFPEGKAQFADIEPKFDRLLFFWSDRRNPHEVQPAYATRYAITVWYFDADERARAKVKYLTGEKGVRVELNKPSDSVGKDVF
Description: VHL/elongin B/elongin C were constructed, expressed and purified, and VHL was labeled. PHD1, PHD2 and PHD3 were constructed, expressed and purified. VBC protein was labeled with DELFIA Eu-Labeling Kit. A NeutrAvidin 96-well plate was blocked after the addition of 200 μL Blocker Casein to each well, followed by incubation for 30 min. Each well was washed 3 times by adding 200 μL of washing buffer each time. […] Each well was washed 3 times by adding 200 μL of washing buffer each time. A 1 mM Biotin solution was prepared with Blocker Casein, and 100 μL of the solution was added to each well, followed by incubation for 30 min. Each well was washed 3 times by adding 200 μL of washing buffer each time. A 20× compound solution was prepared with PHD reaction buffer, with the final concentration of DMSO being 1%. […] After mixing homogeneously, the wells were incubated for 60 min. Each well was washed 3 times by adding 200 μL of washing buffer each time A 1 ng/μL Eu-VBC solution was prepared with Eu-VBC binding buffer, and 100 μL of the solution was added to each well, followed by incubation for 60 min. Each well was washed 6 times by adding 200 μL DELFIA Wash Concentrate each time. 100 μL DELFIA Enhancement Solution was added to each well. […] The flurescence of the sample wells was recorded as FLUsample, the flurescence of the full active wells was recorded as FLU100%, and the flurescence of the blank well was recorded as FLU0%.

[3] = target: CYP1A2 (Homo sapiens (Human), UniProt P05177); type: in vitro ADME
CYP1A2, sequence (P05177 whole entry): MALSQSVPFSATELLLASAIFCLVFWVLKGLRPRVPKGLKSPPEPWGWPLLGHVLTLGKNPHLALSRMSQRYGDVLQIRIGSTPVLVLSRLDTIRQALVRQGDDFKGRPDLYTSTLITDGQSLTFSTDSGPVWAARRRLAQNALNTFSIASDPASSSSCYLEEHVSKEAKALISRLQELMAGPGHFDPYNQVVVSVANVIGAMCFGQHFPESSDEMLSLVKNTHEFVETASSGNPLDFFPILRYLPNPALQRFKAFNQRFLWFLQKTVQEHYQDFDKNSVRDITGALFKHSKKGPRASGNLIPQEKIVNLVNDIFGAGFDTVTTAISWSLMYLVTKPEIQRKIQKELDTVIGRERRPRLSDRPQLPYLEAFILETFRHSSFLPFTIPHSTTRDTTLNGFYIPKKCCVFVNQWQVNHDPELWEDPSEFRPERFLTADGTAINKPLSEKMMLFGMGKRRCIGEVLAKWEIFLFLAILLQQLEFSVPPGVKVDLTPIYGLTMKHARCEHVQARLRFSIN
Description: The compounds of the present disclosure were subjected to the CYP450 enzyme inhibition assay.

[4] = test system: reticulocytes; assay: Effect on reticulocytes of normal mice; type: in vivo, Balb/c mice; set-up: Reticulocytes (RETIC), average: unit not given here; conditions: 10 mg/kg p.o., once; 72 h after administration
How it was run: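 Male Balb/c mice (n = 6/group) received a single oral dose of 10 mg/kg. Comparators were oral FG-4592 at 10 or 50 mg/kg and i.p. rhEPO at 100 IU/kg. At 72 h, orbital blood was collected into EDTA-K2 and reticulocytes were counted on an automatic blood cell analyzer.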

[5] = test system: Erythropoietin in liver cancer cells Hep3B; assay: Expression of erythropoietin in liver cancer cells Hep3B in vitro (EPO ELISA of supernatant); type: cell-based, Human
Description: The cells were adherent cultured overnight, and after discarding the used medium. In the 96-well culture plate, the cells were washed once with 0.5% FBS-containing DMEM medium. […] 0.5% FBS-containing DMEM medium was used instead of the drug solution as the control well. After incubation in a 37° C., 5% CO2 incubator for 24 h, the supernatant was taken as a sample and frozen at −20° C. for later use. An Elisa kit (abeam) was used to detect EPO in the cell supernatant. A microplate reader was used to detect the OD value at 450/620 nm.

Row | Effect on PHD2 compared with compounds of Comparative Examples 1-3 [2] | IC50 [2] | IC50 [3] | Compound | HIF-2α protein expression compared with blank control [1] | fold induction at 30 µM [1] | Reticulocytes (RETIC), average [4] | EPO-enhancing effect compared with positive control drug FG4592 [5]
1 | better effect | 353 nM | > 50000 nM | O=C(O)CNC(=O)c1nc(Br)c2nc(Oc3ccccc3)ccc2c1O [Link-121, 2-(2-phenoxy-5-hydroxy-8-bromo-1,7-naphthyridine-6-formamido) Acetic Acid] | higher than that of the blank control | 4.5 to 8.5 | 7.28 | higher than that of the positive control drug FG4592
2 | better effect | 207 nM | > 50000 nM | O=C(O)CNC(=O)c1nc(Cl)c2nc(Oc3ccccc3)ccc2c1O [Link-118, 2-(2-phenoxy-5-hydroxy-8-chloro-1,7-naphthyridine-6-formamido) Acetic Acid] | higher than that of the blank control | 4.5 to 8.5 | 8.62 | higher than that of the positive control drug FG4592
